# Like-named read-outs stand apart in the source and are kept apart here.
# How the values were obtained:
# [1] = Andersen Cascade Impactor (ACI) experiment; format: physicochemical
# adult = conditions: cited from earlier work
# [2] = aqueous system, 20° C.; cited from earlier work
# [3] = cited from earlier work
# [4] = apparent pH 6.5, 90% ethanol
smiles,measurement,setting,value
"CN1CCCC1c1cccnc1 (stereo not shown) [nicotine, 3-(1-methyl-2-pyrrolidinyl)-pyridine]",behaviour of nicotine in the aerosol droplets,"[1]; formulation at apparent pH 4.0, nicotine in salt form",remains in the liquid droplets
same,behaviour of nicotine in the aerosol droplets,[1]; formulation at apparent pH 6.0,escapes from the liquid droplets as a vapor
same,share of nicotine in its free base form,[1]; formulation at apparent pH 6.0,approximately 15%
same,amount that may kill an adult,adult,Approximately forty
same,pKa for the acid dissociation constant of the mono protonated form of nicotine,[2],approximately 8.0
same,arterial levels exceeding the venous levels,[3]; in vivo,six- to ten-fold
same,time to reach the brain after inhalation,[3]; smoking of a cigarette,ten
same,pKa,"physchem; apparent pKa of nicotine, 90% ethanol, titration curve with sulphuric acid",6.5
same,pKa,"physchem; apparent pKa, ethanol-based system, 20° C.",~6.5
same,share of nicotine in its free base form,[4],50%

# — patent publication US8642627B2 (priority 2002, dated 2014)
